A short description of series [1]: Time-resolved emission spectroscopy (luminescence decay kinetics). It counts as physicochemical. The conditions noted are these: degassed dichloromethane; excited 355 nm, monitored 560 nm. On the procedure:
Time-resolved emission spectroscopy was used to characterize the MLCT excited state of the D-B-A complex. Luminescence decay kinetics were recorded in degassed dichloromethane. The D-B-A complex was excited at 355 nm with an 8-ns laser pulse and luminescence was monitored at 560 nm. […] For comparison, the MLCT lifetime of the reference complex, [Re(CO)3(bpy)(py)]+, determined under identical experimental conditions, is 550 ns.
While the rate of intramolecular ET is concentration independent, intermolecular quenching processes vary predictably with concentration. As such, it is possible to separate the two quenching mechanisms and obtain rate constants for each. Time-resolved luminescence measurements at a series of D-B-A concentrations allow a second order intermolecular quenching rate to be determined. As the concentration was increased, shorter lifetimes were recorded in both dichloromethane and acetonitrile.
This lifetime includes both the natural decay of the photoexcited rhenium as well as quenching through intramolecular electron transfer. […] As the difference in lifetime of the D-B-A and model complex is quite small, these values should be considered upper bounds.

The subject of series [2] is chromaffin cells. Nature of the series: Cell-attached membrane perforation test (capacitive charging transient). The format is cell-based, mouse. To be noted: positive control in pipette; within 5 minutes of gigaseal formation. An excerpt: FIGS. 5A-5H depict data from various experiments related to characteristics of RubpyC17-loaded cells. […] Inset images shown to the right of trace confirmed proper integration of RubpyC17 in patched cells. FIGS. 5C-5E show the light-induced action potential firing in chromaffin cells was not due to biophysical changes in voltage-gated ion channels as there were no significant changes in current-voltage relationships (C-D) nor in steady-state activation curve (E) in RubpyC17-loaded chromaffin cells before (open circle) or during ([…]) light illumination. […] Peak inward currents from each stimulation jump were plotted against corresponding stimulating voltages (n=6). […] Data from representative cell is shown (n=5). […] Currents resulting from capacitor-like behavior of chromaffin cell membranes during hyperpolarizing jumps to −85 mV from a resting membrane potential of −80 mV were recorded 5 min following giga-seal formation for amphoterecin B (bottom trace) or 10 min following giga-seal formation for RubpyC17 (top trace).
Finally, to test whether illumination of RubpyC17 incorporated in cell membranes causes nonspecific membrane poration or other damage, 18 μM RubpyC17 was loaded inside a patch pipette and attached to a cell (gigaseal formation) in the cell-attached configuration. […]

SMILES strings stand for the structures.

`[C-]#[O+].[C-]#[O+].[C-]#[O+].[Re+].c1ccc(-c2ccccn2)nc1.c1ccncc1` [[Re(CO)3(bpy)(py)]+]: the “luminescence (MLCT) lifetime” value in series [1] was 550 ns.

As to `C[C@@H]1[C@H](O)[C@@H](C)/C=C/C=C/C=C/C=C/C=C/C=C/C=C/[C@H](O[C@@H]2O[C@H](C)[C@@H](O)[C@H](N)[C@@H]2O)C[C@@H]2O[C@](O)(C[C@@H](O)C[C@@H](O)[C@H](O)CC[C@@H](O)C[C@@H](O)CC(=O)O[C@H]1C)C[C@H](O)[C@H]2C(=O)O` [amphotericin B, reference compound], in series [2], the “capacitive charging transient (membrane perforation)” value is reported as “a sizable capacitive charging transient”.

The record behind these values is US10406227B2, “Photoactivated molecules for light-induced modulation of the activity of electrically excitable cells and methods of using same” (University of Southern California, priority 2012, dated 2019).
